Data set [1] concerns the target T1, Glucose-6-phosphate dehydrogenase (UniProt P11412).
T1 sequence (P11412 1-505): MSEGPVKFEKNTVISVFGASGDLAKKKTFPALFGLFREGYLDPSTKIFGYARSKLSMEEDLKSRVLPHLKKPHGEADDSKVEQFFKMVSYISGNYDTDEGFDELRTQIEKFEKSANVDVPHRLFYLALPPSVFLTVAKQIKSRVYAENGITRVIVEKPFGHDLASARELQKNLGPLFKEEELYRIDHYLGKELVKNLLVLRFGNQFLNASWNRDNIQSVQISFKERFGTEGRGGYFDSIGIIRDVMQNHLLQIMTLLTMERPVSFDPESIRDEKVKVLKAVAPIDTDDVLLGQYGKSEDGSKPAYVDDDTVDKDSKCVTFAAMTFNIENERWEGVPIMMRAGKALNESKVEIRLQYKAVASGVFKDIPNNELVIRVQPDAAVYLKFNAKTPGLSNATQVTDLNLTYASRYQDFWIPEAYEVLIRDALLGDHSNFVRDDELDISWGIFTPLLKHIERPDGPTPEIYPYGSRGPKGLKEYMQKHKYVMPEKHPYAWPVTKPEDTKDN
Kind of data set: Inhibitor IC50 against NADPH dependent oxidoreductase, by his-mBFP fluorescence quantification of NADPH. Type of data set: biochemical. As to conditions: compounds added at 0.1 to 10 mM, sigma plot. On the procedure: (§1) As an example of typical reactions, first, 0.02 units of glutathione reductase was reacted with 50 mM potassium phosphate buffer (pH 7.5) containing 5 mM of oxidized glutathione (GSSG) and 2 mM NADPH at room temperature, and then fluorescence was measured. In addition, 0.03 units of isocitrate dehydrogenase was reacted with 50 mM phosphate buffer (pH 7.2) containing 5 mM isocitrate, 2 mM MgCl2, and 2 mM NADP+ at room temperature, and then fluorescence was measured. In addition, 0.02 units of glucose-6-phosphate dehydrogenase was reacted with 50 mM Tris-HCL buffer (pH 7.5) containing 5 mM glucose-6-phosphate, 50 mM MgCl2, and 2 mM NADP+ at room temperature, and then fluorescence was measured. Further, 0.04 units of malate dehydrogenase was reacted with 50 mM Tris-HCL buffer (pH 7.5) containing 5 mM L-malate, 50 mM MgCl2, and 2 mM NADP+ at room temperature, and then fluorescence was measured. In addition, 0.02 units of NADPH oxidase was reacted with 50 mM phosphate buffered saline (PBS) containing 50 mM MgCl2 and 2 mM NADP+ at room temperature, and then fluorescence was measured. At the time of measuring the fluorescence, the reaction solution was diluted in consideration of mole ratio with his-mBFP.
(§2) In addition, the present invention may selectively select an activity inhibitor by restricting the library in the above-mentioned process with a clone having an oxidation/reduction enzyme family, adding a specific compound as well as a substrate in a process of measuring the activities of these enzymes, calculating a changed amount of NADP(H) to compare the calculated value with that of a control group (only substrate was add). These processes mean that after clones having related enzyme activities are cultured and a substrate and NADP(H) are added thereto, a changed amount of NADPH is quantified while inducing a reaction in an environment in which various synthetic materials are present.
(§3) In more detail, compounds having a possibility as the activity inhibitor were added to reaction solution of NADPH dependent oxidoreductase as in Example 7 at each concentration (0.1 to 10 mM). While the reaction was carried out, a produced amount of NADPH according to addition of each compound was quantified, and an inhibition degree of specific enzyme activity was confirmed by comparing the produced amount of NADPH in the case of adding the compound (test group) with that of in the case of not adding (control group).
(§4) After rates of NADPH production (reduction) reaction according to the concentration changes of primary selected compounds were measured, IC50 of each compound was calculated using a sigma plot program.

The next data set concerns the target Alcohol dehydrogenase. The description is as above. As to conditions: compounds added at 0.1 to 10 mM, sigma plot. Format: biochemical. As for the experimental part:
as §1, §2, §3, §4

A further data set concerns the target Isocitrate dehydrogenase. The data set is described as above. Format: biochemical. As to conditions: compounds added at 0.1 to 10 mM, sigma plot. As for the experimental part: as §1, §2, §3, §4
The nature of data set [2]: Retention of fluorescence of his-mBFP according to storage method. Format: physicochemical. As for the experimental part: In order to search a long-term storage method for his-mBFP requiring retention of the structure that is an important factor in fluorescence activity, suitable protein storage methods were observed. As storage conditions, degrees of reduction of fluorescence according to time were confirmed at different temperatures (4° C., −20° C., −80° C.) and different concentrations of additives for storage (5% trehalose, 25% glycerol, 50% glycerol, based on final concentration).
Among his-mBFP samples stored under each of the conditions, in the case of frozen samples, the sample was sufficiently hydrated in a cool buffer for 5 to 45 minutes in consideration of reconstruction of the structure, time required for restoration, or the like, and then was used in the experiment.

Regarding `O=C(O[C@@H]1Cc2c(O)cc(O)cc2O[C@H]1c1cc(O)c(O)c(O)c1)c1cc(O)c(O)c(O)c1` [gallocatechin gallate], the midpoint of inhibition in data set [1], the IC50, lay at 225 ± 28.6 µM.
Molecule `COc1ccc(/C=C/c2cc(O)cc(O[C@@H]3O[C@H](CO)[C@@H](O)[C@H](O)[C@H]3O)c2)cc1O` [Rhaponticin] came in with an IC50 at Alcohol dehydrogenase of 61.2 ± 4.1 µM.
On to `OC[C@H]1O[C@@H](Oc2cc(O)cc(/C=C/c3ccc(O[C@@H]4O[C@H](CO)[C@@H](O)[C@H](O)[C@H]4O)cc3O)c2)[C@H](O)[C@@H](O)[C@@H]1O` [Mulberroside A], for which it took 48.9 ± 4.9 µM to reach half-maximal inhibition at Alcohol dehydrogenase (IC50). The IC50 values of the last two molecules are within 1.5-fold of each other.
In the case of `O=C(O[C@@H]1Cc2c(O)cc(O)cc2O[C@@H]1c1ccc(O)c(O)c1)c1cc(O)c(O)c(O)c1` [epicatechin gallate], in data set [1], the IC50 was 235 ± 37.8 µM.
For `Cc1cn[nH]c1` [Formepizole], at Alcohol dehydrogenase, the IC50 amounted to 40.6 ± 5.8 µM.
As to `CC(O)(C(=O)O)C(CC(=O)O)C(=O)O` (stereo not drawn) [methylisocitric acid], at Isocitrate dehydrogenase, the IC50 is 102 ± 7.4 µM.
At Isocitrate dehydrogenase, `O=C(O)C(=O)C(C(=O)O)C(O)C(=O)O` (stereo not drawn) [oxalomalic acid] displayed an IC50 of 63.3 ± 5.2 µM.

B1: his-mBFP: metagenome-derived blue fluorescent protein with histidine tag, amino acid sequence SEQ ID NO: 3 (protein)
chain: MRGSHHHHHHGSACQNLNGKVAFVTGGSRGIGAAIVRRLAADGADIAFTYVSASSKNVATALVQELEAKGRRARAIQADSADPAQVRQAVEQAIVQLGPVDVLVNNAGIFLAGPLGEVTLDDYERTMNINVRAPFVAIQAAQASMPDGGRIINIGSCLAERAGRAGVTLYAASKSALLGMTRGLARDLGARGITANVVHPGPIDTDMNPADGERSGELVAVLSLPHYGEVRDIAGMVAFLAGPDGRYVTGASLAVDGGFAA
modifications: synthetic construct of His-tagged metagenome-derived blue fluorescent protein (mBFP)
On to B1, for which the fluorescence maintained in data set [2] (after 6 months, additive (25% to 50%) added) is reported as ≥ 90%; in data set [2] (both cool and frozen conditions after 6 months), ≥ 80%; in data set [2] (cold room at 4° C. for 2 months, solution state, no additive for storage) it was ≥ 80%; in data set [2] (freezer at −20 to −80° C. for 2 months with an additive for storage), ≥ 95%. Besides, the fluorescence intensity maintained in data set [2] (glycerol final concentration 50%, freezer at −80° C.) is listed as ≥ 90%.

These data come from patent US8889345B2, “Detection methods of NADP(H) using mBFP” (priority 2012, dated 2014).
